The text below walks through data of paper PMC6596218, “Anthranilic amide and imidazobenzothiadiazole compounds disrupt Mycobacterium tuberculosis membrane potential” (MedChemComm, 2019).

Converted amounts (≈) assume the structure as drawn.

For data set [1], the system named is M. tuberculosis H37Rv. As to the kind of experiment: Minimum bactericidal concentration at pH 4.5 (MBC4.5), luminescence readout. The format is cell-based, Mycobacterium tuberculosis. Particulars: for MBC: Mycobacterium tuberculosis, H37RV, 168 h.
Data set [2] deals with HepG2 cells. As to the kind of experiment: HepG2 cytotoxicity (CellTiter-Glo, 72 h). The format is cell-based. Particulars: Homo sapiens, mean ± standard deviation, replicates in parentheses. For orientation: In ATP-based viability assays light output follows the ATP content of the culture.
Data set [3] deals with non-replicating M. tuberculosis. As to the kind of experiment: Non-replicating kill kinetics at pH 5.5 (CFU over 21 days). Type of data set: cell-based, Mycobacterium tuberculosis. The settings on record: single replicate; for log kill at 14 days: pH 5.5, 14 days; for log kill within 21 days: pH 5.5, 21 days.
For data set [4], the system named is M. tuberculosis. Details: method as in PMID 30501173. Particulars: non-replicating, cited from earlier work.
Data set [5] concerns intracellular M. tuberculosis in RAW 264.7 cells. As to the kind of experiment: Activity against intracellular M. tuberculosis in RAW 264.7 cells. The settings on record: RAW 264.7 cells (ATCC TIB-71). Type of data set: cell-based, Mycobacterium tuberculosis. From the text: In addition to determination of the MBC4.5 for each compound, we evaluated antitubercular activity of the compounds as measured by MIC at pH 5.6 (Table S1 ^†) and IC50 against intracellular M. tuberculosis in RAW 264.7 cells (ATCC TIB-71) (Table S2 ^†). […] General cytotoxicity against the infected RAW 264.7 cells was observed and was correlated with cytotoxicity against HepG2 cells (Table S2 ^†).

Data set [6] deals with M. tuberculosis membrane potential. As to the kind of experiment: M. tuberculosis membrane potential (DiOC2 red/green fluorescence ratio). The format is cell-based, Mycobacterium tuberculosis. Particulars: CCCP positive control.
Data set [7] deals with HepG2 cells. The format is cell-based, human. Particulars: human, 30 min, pH 7.4. The protocol: Measurement of membrane potential in HepG2 human liver cells (ATCC) was adapted from the method published by Huang.[40] Cells were plated at a density of 50 000 cells per well (100 μL) in black-walled 96-well plates and incubated overnight. Culture medium was replaced with the same volume of assay buffer (80 mM NaCl, 75 mM KCl, 25 mM D-glucose, 25 mM HEPES pH 7.4) containing test compounds at indicated concentrations; CCCP and DMSO served as controls. Plates were incubated at 37 °C for 30 min, followed by incubation with 4 μM DiOC2 for 20 min at RT. Cells were washed 4 times with 150 μL assay buffer, and suspended in 100 μL of assay buffer. A Synergy H1 microplate reader (BioTek Instruments) was used to measure fluorescence (488 nm/530 nm and 488 nm/620 nm). Each test compound was evaluated in at least two replicate experiments.

[8] abbreviates: median, pH 4.5 phosphate citrate buffer, 7 days, 2-log reduction threshold, replicates in parentheses.

The term MBC denotes the lowest tested concentration that kills the bacteria rather than only halting them. What is called IC50 is the concentration needed to halve the response being measured. On to `O=C(Nc1ccc(Cl)cc1)c1ccccc1NS(=O)(=O)c1ccc(Br)cc1` [Compound 3, 2-(4-bromophenylsulfonamido)-N-(4-chlorophenyl)benzamide], for which, in data set [1] (setting [8]), the MBC is 50 µM (≈ 23.3 µg/mL). The concentration for half-maximal inhibition (IC50) in data set [2] came out at 11 ± 4.7 µM. Also, the “log kill within 7 days” value in data set [3] (pH 5.5, 7 days) is listed as above 3 log. The “log kill at 14 days” value in data set [3] is recorded as above 4 log.
Take `CS(=O)(=O)Nc1ccccc1C(=O)Nc1ccc(Cl)cc1Cl` [Compound 8, N-(2,4-dichlorophenyl)-2-(methylsulfonamido)benzamide]: in data set [1] (setting [8]), the MBC was 75 µM (≈ 26.9 µg/mL). Moreover, the IC50 in data set [2] is 78 ± 29 µM. Also, the “log kill at 14 days” value in data set [3] was above 4 log.
In the case of `O=[N+]([O-])c1cc2nc(C(F)(F)F)[nH]c2c2nsnc12` [Compound 2], in data set [1] (setting [8]), the MBC was found to be 25 µM (≈ 7.23 µg/mL) and the MBC4.5 is 25 (2) μM. The half-maximal inhibitory concentration (IC50) in data set [2] amounted to 83 ± 24 µM. The “decrease of CFU in the culture within 7 days” value in data set [4] (pH 4.5 and pH 6.8, 10–100 μM, 7 days) is above 4 logs. The “time to sterilizing the culture” value in data set [4] (pH 4.5 and pH 6.8, all concentrations 10–100 μM) is reported as at most 14 days.
Take `CCN(C)c1ccccc1C(=O)Nc1ccc(Cl)cc1Cl` [Compound 11, N-(2,4-dichlorophenyl)-2-(ethyl(methyl)amino)benzamide]: the MBC in data set [1] (setting [8]) is above 200 µM. Further, the IC50 in data set [2] amounted to 69 ± 44 µM. Further, in data set [5], the “antitubercular activity against intracellular M. tuberculosis” value was “showed antitubercular activity”.
Turning to `O=C(Nc1ccccn1)c1ccccc1NS(=O)(=O)c1ccc(Br)cc1` [Compound 24, 2-(4-bromophenylsulfonamido)-N-(pyridin-2-yl)benzamide], the MBC in data set [1] (setting [8]) was found to be 113 µM (≈ 48.8 µg/mL). The IC50 in data set [2] amounted to 52 ± 13 µM. For the same compound, in data set [3], the “log kill within 21 days” value was above 3 logs.
The like results for `Cc1ccc(S(=O)(=O)Nc2ccccc2C(=O)Nc2ccc(Cl)cc2Cl)cc1` [Compound 15, N-(2,4-dichlorophenyl)-2-(4-methylphenylsulfonamido)benzamide] were, in that order, above 200 µM, 37 ± 8.5 µM and above 3 logs.
For the compound `CN(C(=O)c1ccccc1NS(=O)(=O)c1ccc(Br)cc1)c1ccc(Cl)cc1Cl` [Compound 25, 2-(4-bromophenylsulfonamido)-N-(2,4-dichlorophenyl)-N-methylbenzamide], the MBC in data set [1] (setting [8]) is above 200 µM. The “antitubercular activity (by MBC4.5, in words)” value in data set [1] (pH 4.5) is reported as “loss of antitubercular activity”. In addition, the IC50 in data set [2] was 60 ± 9.9 µM. The “disruption of M. tuberculosis membrane potential at pH 5.6” value in data set [6] is reported as “maintained its disruption of M. tuberculosis membrane potential at pH 5.6”. Also, the “disruption of M. tuberculosis membrane potential at pH 6.8” value in data set [6] (pH 6.8) is recorded as “showed some capacity to depolarize the membrane, but the effect was at much higher concentrations”. In addition, the “disruption of HepG2 cell membrane potential” value in data set [7] is on record as “decrease in membrane potential in HepG2 cells comparable in magnitude to CCCP at concentrations significantly below the IC50”.
Regarding `NC(=O)c1ccccc1NS(=O)(=O)c1ccc(Br)cc1` [Compound 6, 2-(4-bromophenylsulfonamido)benzamide], the MBC in data set [1] (setting [8]) was above 200 µM. The IC50 in data set [2] is above 100 µM. The “disruption of M. tuberculosis membrane potential at pH 5.6” value in data set [6] was “did not disrupt M. tuberculosis membrane potential”. Besides, the “disruption of HepG2 cell membrane potential” value in data set [7] is on record as “did not disrupt membrane potential at concentrations up to 200 μM”.
